ChEMBL document CHEMBL1151427, “Intrinsic novobiocin resistance in Staphylococcus saprophyticus” (2007)
In brackets after ≈: the same amount, converted by molar mass.

Columns and labels:
Type in all cases: functional
Staphylococcus aureus [1] = experiment: Antimicrobial activity against Staphylococcus aureus RN4220 harboring tetracycline-regulable expression vector pAJ96 expressing Staphylococcus saprophyticus GyrB G85D mutant gene after 24 hrs by agar dilution method; details: RN4220, 24 h
Staphylococcus aureus [2] = experiment: Antimicrobial activity against Staphylococcus aureus RN4220 harboring tetracycline-regulable expression vector pAJ96 expressing Staphylococcus saprophyticus GyrB gene after 24 hrs by agar dilution method; details: RN4220, 24 h
[3] = system: Staphylococcus saprophyticus; experiment: Antimicrobial activity against Staphylococcus saprophyticus ATCC 15305 after 24 hrs by agar dilution method; details: ATCC 15305, 24 h
Staphylococcus aureus [4] = experiment: Antimicrobial activity against Staphylococcus aureus RN4220 harboring tetracycline-regulable expression vector pAJ96 expressing Staphylococcus saprophyticus GyrB G85D, K140R mutant gene after 24 hrs by agar dilution method; details: RN4220, 24 h
[5] = Ratio of MIC for Staphylococcus aureus RN4220 harboring tetracycline-regulable expression vector pAJ96 expressing Staphylococcus saprophyticus GyrB gene to MIC for Staphylococcus aureus RN4220
Staphylococcus aureus [6] = experiment: Antimicrobial activity against Staphylococcus aureus SH1000 after 24 hrs by agar dilution method; details: SH1000, 24 h
Staphylococcus aureus [7] = experiment: Antimicrobial activity against Staphylococcus aureus RN4220 harboring tetracycline-regulable expression vector pAJ96 after 24 hrs by agar dilution method; details: RN4220, 24 h
Staphylococcus aureus [8] = experiment: Antimicrobial activity against Staphylococcus aureus RN4220 harboring tetracycline-regulable expression vector pAJ96 expressing Staphylococcus saprophyticus GyrB K140R mutant gene after 24 hrs by agar dilution method; details: RN4220, 24 h
[9] = Ratio of MIC for Staphylococcus aureus RN4220 harboring tetracycline-regulable expression vector pAJ96 expressing Staphylococcus saprophyticus GyrB gene to MIC for Staphylococcus aureus SH1000
Staphylococcus aureus [10] = experiment: Antimicrobial activity against Staphylococcus aureus RN4220 after 24 hrs by agar dilution method; details: RN4220, 24 h
Staphylococcus aureus [11] = experiment: Antimicrobial activity against Staphylococcus aureus RN4220 harboring tetracycline-regulable expression vector pAJ96 expressing Staphylococcus aureus GyrB gene after 24 hrs by agar dilution method; details: RN4220, 24 h

## CO[C@@H]1[C@@H](OC(N)=O)[C@@H](O)[C@H](Oc2ccc3c(O)c(NC(=O)c4ccc(O)c(CC=C(C)C)c4)c(=O)oc3c2C)OC1(C)C [NOVOBIOCIN]
Staphylococcus aureus [1]
  MIC: 1 µg/mL (≈ 1.63 µM)
Staphylococcus aureus [2]
  MIC: 8 µg/mL (≈ 13.1 µM)
[3]
  MIC: 16 µg/mL (≈ 26.1 µM)
Staphylococcus aureus [4]
  MIC: 0.125 µg/mL (≈ 0.204 µM)
[5]
  Ratio: 64
Staphylococcus aureus [6]
  MIC: 0.125 µg/mL (≈ 0.204 µM)
Staphylococcus aureus [7]
  MIC: 0.125 µg/mL (≈ 0.204 µM)
Staphylococcus aureus [8]
  MIC: 2 µg/mL (≈ 3.26 µM)
[9]
  Ratio: 64
Staphylococcus aureus [10]
  MIC: 0.125 µg/mL (≈ 0.204 µM)
Staphylococcus aureus [11]
  MIC: 0.125 µg/mL (≈ 0.204 µM)
